Results published in paper PMC11521309, “A novel 4-aminoquinoline chemotype with multistage antimalarial activity and lack of cross-resistance with PfCRT and PfMDR1 mutants” (PLOS Pathogens, 2024).
Several values for one entry are separate records, joined by “and”; a condition that tells them apart may be missing. Identical values can stand only once. Like-named read-outs stand apart in the source and are kept apart here.

Key:
[1] = tested on: P. falciparum 3D7 ABS parasites; assay: ABS parasite survival assay, 72 h, flow cytometry; type: cell-based; details: Plasmodium falciparum, 3D7, ABS parasites, N = 3; read-out: IC50 3D7
Method: (§1) P. falciparum ABS parasites were cultured at 3% hematocrit in human O^+ RBCs in RPMI-1640 media supplemented with 25 mM HEPES, 50 mg/L hypoxanthine, 2 mM L-glutamine, 0.21% sodium bicarbonate, 0.5% (w/v) AlbuMAXII (Invitrogen) and 10 μg/mL gentamycin. Culture flasks were kept in modular incubator chambers (Billups-Rothenberg) in a 5% O2, 5% CO2, and 90% N2 atmosphere at 37°C. Synchronized ring-stage parasites were obtained by two consecutive rounds of treatment with 5% D-sorbitol in 48-hour intervals. […] This was done by exposing cultures at 1% hematocrit and 0.3% parasitemia in 96-well plates in the presence of drugs in a two-fold 10 or 12-point serial dilution in duplicate along with drug-free controls. After a 72-hour incubation, parasite survival was assessed by flow cytometry on an iQue flow cytometer (Sartorius) using SYBR Green and MitoTracker Deep Red FM (Life Technologies) as nuclear stain and vital dye, respectively. Parasite survival was determined as a percentage relative to drug-free control. IC50 values were interpolated from log concentration versus response curves in Prism 9 (GraphPad Prism Software Inc.).

[2] = tested on: P. falciparum Dd2 ABS parasites; assay: ABS parasite survival assay, 72 h, flow cytometry; type: cell-based; details: Plasmodium falciparum, DD2, ABS parasites, N = 3; read-out: IC50 Dd2
Method: as §1

[3] = MTT cytotoxicity assay, 72 h; type: cell-based, Human; details: human, MTT, 72 h, N = 3
Method: (§2) Human hepatoma (HepG2) and fibroblast-like monkey kidney cells (COS-7) were cultured in Dulbecco’s Modified Eagle Medium supplemented with 10% heat-inactivated fetal bovine serum and gentamycin (40 mg/L) at 37°C in a 5% CO2 atmosphere. Cytotoxicity of test compounds was measured by metabolic reduction of mitochondrial enzymes using the MTT assay (3-[4,5-dimethyl-thiazol-2-yl]-2,5-diphenyltetrazolium chloride). Cells were seeded at 10^5 cells/well in 96-well plates and incubated for 72 hours in the presence of a 2-fold 12-point serial dilution of drugs along with drug-free controls. After adding 15 μL of MTT (5 mg/mL) to the wells, plates were centrifuged at 317g for 5 minutes and the pellet was resuspended in isopropanol. Absorbance was measured at 570 nm (CLARIOStar, Labtech BMG). Cell viability was determined by formazan production, and was expressed as a percentage of untreated control wells.

HepG2 cells = assay: MTT cytotoxicity assay, 72 h; type: cell-based, Human
Method: as §2

COS-7 cells = assay: MTT cytotoxicity assay, 72 h; type: cell-based, monkey
Method: as §2

[4] = MTT cytotoxicity assay, 72 h; type: cell-based, monkey; details: monkey, MTT, 72 h, N = 3
Method: as §2

[5] = tested on: pool of barcoded P. falciparum lines (Dd2 and 3D7 backgrounds); assay: Resistome growth assay, pool of 51 barcoded lines; type: cell-based, Plasmodium falciparum; details: 3 x IC50 constant
Method: The resistome growth assay employs a parasite pool consisting of 51 barcoded lines including both Dd2 and 3D7 genetic backgrounds, with wild-type lines for both (S3 Table). Most lines used were derived from in vitro resistance selection experiments, with others having been CRISPR edited. All lines were barcoded via CRISPR editing of a 101bp barcode cassette into the non-essential pfpare locus (PF3D7_0709700). Parasites were cultured in RPMI-1640 medium supplemented with HEPES (5.94 g/L), NaHCO3 (2.1 g/L), glutamax (1×), hypoxanthine (50 mg/L), gentamycin ([…]), and AlbumaxII (5 g/L) at a […]. Parasite growth was monitored over 14 days by flow cytometry (Cytoflex, Beckman Coulter) by staining with 1× SYBR Green and 0.2 μM MitoTracker Deep Red. Parasitemia adjustments were made to maintain a healthy range of <5% parasitemia. Parasite cultures were harvested at day 14 and lysed by saponin (0.05%), with pellets washed twice with PBS. Barcodes were PCR amplified using 5 μL of parasite pellet and sequenced by Illumina amplicon sequencing.

PfCRT 7G8 isoform = assay: [3H]CQ uptake in PfCRT-containing proteoliposomes; type: biochemical, Plasmodium falciparum; details: 1 μM; PfCRT 7G8, 7G8^F145I and 7G8^C350R
Method: Purified PfCRT variants were reconstituted in preformed liposomes made of E. coli total lipids:cholesteryl hemisuccinate 97:3 (w/w) at a protein-to-lipid ratio of 1:150 (w/w). The lumen of the proteoliposomes was composed of 100 mM KPi, pH 7.5, and 2 mM β-mercaptoethanol. Uptake of [^3H]CQ (1 Ci/mmol) or [^3H]PPQ (1 Ci/mmol) was performed by diluting PfCRT-containing proteoliposomes (30 ng of PfCRTper reaction) in an uptake buffer containing 100 mM Tris/MES, pH 5.5, in the presence or absence of 1 μM of the test compounds. In addition, 1 μM valinomycin was added to the reaction to generate a K^+ diffusion potential-driven membrane potential (ΔΨ). […] Filters were dried and incubated in a scintillation cocktail, and the radioactivity captured on the filters was counted in a Hidex SL300 scintillation counter. The efficiency of detection was calculated with a standard curve of known concentrations of each radiolabeled compound, and this was used to transform decays per minute (dpm) into pmol. The nonspecific interaction of each compound with nitrocellulose filters was determined by measuring mock uptake in the absence of liposomes or proteoliposomes. These values (determined for each experiment) were used to calculate background uptake in liposomes or proteoliposomes. […]

[6] = tested on: P. berghei PbGFP-Luccon liver stage; assay: In vitro inhibition of liver stage infection of Huh-7 cells, bioluminescence; type: cell-based, Plasmodium berghei; details: 10 nM, positive control
Method: In vitro inhibition of Plasmodium liver stage infection was assessed using bioluminescence data from Huh-7 cells infected with a firefly-luciferase-expressing P. berghei line, PbGFP-Luccon, in the presence of various compound concentrations. […] One day before drug treatment and infection, 10^4 Huh-7 cells/well were seeded in 96-well plates. The medium was then replaced by an infection medium (culture medium supplemented with 50 μg/mL gentamycin and 0.8 μg/mL amphotericin B) containing desired concentrations of test compounds. Fresh sporozoites recovered from salivary glands of infected female Anopheles stephensi mosquitoes were added to seeded Huh-7 cells at a 1:1 proportion, followed by centrifugation at 1700g for 5 minutes and incubation for 46 hours at 37°C under 5% CO2. Compound toxicity against Huh-7 cells was assessed by measuring […] using the Alamar Blue assay (Invitrogen). IC50 values were calculated using nonlinear regression analysis (GraphPad Prism version 9).

[7] = tested on: P. falciparum NF54-Pfs16-GFP-Luc stage IV-V gametocytes; assay: Mature gametocyte (stages IV-V) viability, luciferase, 48 h; type: cell-based, Plasmodium falciparum; details: 5 μM
Method: P. falciparum NF54-Pfs16-GFP-Luc (MRA-1217), a highly gametocyte-producing strain, was cultured following standard procedures. NF54-Luc ABS parasites were sorbitol-synchronized as previously described and cultured to reach 8–10% parasitemia as mature trophozoites prior to starting gametogenesis induction via nutrient deficit stress. Briefly, stress was induced by replacing only 40% of the culture medium and returning cultures to a 37°C incubation. Cultures were treated with 50 mM N-acetylglucosamine for 10 days to remove ABS parasites. Mature gametocytes (stages IV-V) were isolated using magnetic columns and incubated at 2% gametocytemia and 1.5% hematocrit in 96-well plates containing the test compounds for 48 hours at 37°C, following standard P. falciparum culturing conditions. Methylene blue was used as a gametocytocidal control alongside drug-free wells. Luciferase activity was assessed by adding 40 μL of luciferin substrate (Promega) to 40 μL of parasite lysates and detecting bioluminescence at an integration constant of 10s with the BioTek Cytation 5 Cell Imaging Multimode Reader.

| Structure (SMILES) | IC50 [1] [nM] | IC50 [2] [nM] | CC50 at 72 h ([3]; HepG2 cells) [nM] | SI (CC50 HepG2 / IC50 3D7) (HepG2 cells) | SI (CC50 COS-7 / IC50 3D7) (COS-7 cells) | CC50 at 72 h ([4]; COS-7 cells) [nM] | other results |
| --- | --- | --- | --- | --- | --- | --- | --- |
| COc1cc(Nc2ccnc3ccccc23)cc(OC)c1 [LDT-621] | 2200 ± 100 | 2000 ± 300 | 500 ± 100 | 0.2 | 2.8 | 6500 ± 4200 |  |
| COc1cccc(Nc2ccnc3ccccc23)c1 [LDT-617] | 1800 ± 100 | 1900 ± 200 | 40800 ± 12200 | 23.1 | 28.9 | 51200 ± 6600 |  |
| CNC(=O)c1ccc(-c2cnc3cnc(C(=O)N(C)c4ccc(Cl)cc4)cn23)cc1 [KDU691] |  |  |  |  |  |  | recrudescence of barcoded pool after [5]: 9 days and 7 days |
| COc1ccc(Nc2ccnc3ccccc23)cc1 [LDT-627] | 2500 ± 800 | 2000 ± 200 | 12700 ± 6400 | 5.2 | 22.1 | 54500 ± 16700 |  |
| CCc1nc(N)nc(N)c1-c1ccc(Cl)cc1 [pyrimethamine] |  |  |  |  |  |  | competitive inhibition of [3H]CQ or [3H]PPQ transport (PfCRT 7G8 isoform): No competitive inhibition |
| COc1cc(Nc2ccnc3ccc(Br)cc23)cc(OC)c1OC [LDT-619] | > 5000 | > 5000 |  | 0.1 | 0.7 |  | CC50 at 72 h ([3]; read-out: CC50 HepG2): 300 ± 40 nM; CC50 at 72 h ([4]; read-out: CC50 COS-7): 3300 ± 300 nM |
| COc1ccc(Nc2ccnc3ccc(F)cc23)cc1OC [LDT-625] | 3200 ± 800 | 2900 ± 500 | 33300 ± 3800 | 10.3 | 6.2 | 20400 ± 1300 |  |
| COc1ccc(Nc2ccnc3c(F)cc(F)cc23)cc1OC [LDT-626] | 5500 ± 500 | 3200 ± 400 | 53800 ± 10800 | 9.8 | 9.3 | 50900 ± 22200 |  |
| O=C1C(O)=C([C@H]2CC[C@H](c3ccc(Cl)cc3)CC2)C(=O)c2ccccc21 [atovaquone] |  |  |  |  |  |  | effect on hepatic infection [6]: almost completely ablated infection; competitive inhibition of [3H]CQ or [3H]PPQ transport (PfCRT 7G8 isoform): No competitive inhibition |
| COc1ccc2c(Nc3ccccc3)ccnc2c1 [LDT-622] | 200 ± 20 | 400 ± 60 | 3000 ± 900 | 13.7 | 17.5 | 3800 ± 700 |  |
| CN(C)c1ccc2nc3ccc(=[N+](C)C)cc-3sc2c1 [methylene blue] |  |  |  |  |  |  | % Inhibition of viability, mature gametocytes ([7]; mean, N = 3): 100%; % Inhibition of viability, mature gametocytes ([7]; mean, N = 3, listed as MB): 100.00%; % Inhibition of viability, mature gametocytes ([7]; single replicates): 100.00% |
| COc1cc(Nc2ccnc3cc(Br)ccc23)cc(OC)c1OC [LDT-624] | 1600 ± 700 | 1000 ± 200 | 32500 ± 7500 | 20.6 | 26.1 | 41300 ± 17200 |  |
| COc1ccc(Nc2ccnc3ccccc23)cc1OC [LDT-618] | 1800 ± 100 | 1900 ± 200 | 29800 ± 9700 | 16.8 | > 56.5 | > 100000 |  |
| CCOc1cc2nccc(Nc3cc(OC)c(OC)c(OC)c3)c2cc1OCC [LDT-620] | 400 ± 50 | 500 ± 100 | 1600 ± 100 | 3.8 | 6.3 | 2600 ± 300 |  |
